# Test results published in ChEMBL document CHEMBL1201862, “PubChem BioAssay data set” (2004).
#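 Tested at 5 concentrations; 48 h exposure; 96-well plates; endpoints linearly interpolated, else capped at highest concentration. GI50: concentration for 50% inhibition of growth.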 Active and inactive are the calls of the source. Rule as the data show it: active = GI50 up to about 1.1 µM and inactive = higher.
# Legend:
# Test in all cases: inhibition of tumour cell growth, NCI panel, 48 h
# NCI-H522 = test system: NCI-H522
# SF-268 = test system: SF-268
# TK-10 = test system: TK-10
# UO-31 = test system: UO-31
# HT-29 = test system: HT-29
# A549 = test system: A549
# M14 = test system: M14
# SK-MEL-28 = test system: SK-MEL-28
# K562 = test system: K562
# U-251 = test system: U-251
# SNB-78 = test system: SNB-78
# HCT-116 = test system: HCT-116
# COLO 205 = test system: COLO 205
# NCI-H460 = test system: NCI-H460
# IGROV-1 = test system: IGROV-1
# SF-295 = test system: SF-295
# DLD-1 = test system: DLD-1
# LXFL 529 = test system: LXFL 529
# LOX IMVI = test system: LOX IMVI
# OVCAR-3 = test system: OVCAR-3
# KM-20L2 = test system: KM-20L2
# SK-OV-3 = test system: SK-OV-3
# OVCAR-4 = test system: OVCAR-4
# HOP-62 = test system: HOP-62
# HOP-92 = test system: HOP-92
# SW-620 = test system: SW-620
# NCI-H23 = test system: NCI-H23
# NCI-H226 = test system: NCI-H226
# ACHN = test system: ACHN
# UACC-257 = test system: UACC-257
# HL-60 = test system: HL-60
# RPMI-8226 = test system: RPMI-8226
# SR = test system: SR
# SF-539 = test system: SF-539
# OVCAR-5 = test system: OVCAR-5
# M19-MEL = test system: M19-MEL
# SNB-75 = test system: SNB-75
# OVCAR-8 = test system: OVCAR-8
# SNB-19 = test system: SNB-19
# UACC-62 = test system: UACC-62
# MOLT-4 = test system: MOLT-4
# KM12 = test system: KM12
# 786-0 = test system: 786-0
# MDA-N = test system: MDA-N
# CAKI-1 = test system: CAKI-1
# Malme-3M = test system: Malme-3M
# CCRF-CEM = test system: CCRF-CEM
# MDA-MB-435 = test system: MDA-MB-435
# BT-549 = test system: BT-549
# HCT-15 = test system: HCT-15
# PC-3 = test system: PC-3
# SK-MEL-5 = test system: SK-MEL-5
# A498 = test system: A498
# RXF 393 = test system: RXF 393
# SN12C = test system: SN12C
# T47D = test system: T47D
# Hs-578T = test system: Hs-578T
# DU-145 = test system: DU-145
# SK-MEL-2 = test system: SK-MEL-2
# MCF7 = test system: MCF7
# EKVX = test system: EKVX
# HCC 2998 = test system: HCC 2998
# MDA-MB-231 = test system: MDA-MB-231
# NCI/ADR-RES = test system: NCI/ADR-RES
smiles,measurement,setting,value
Sc1nnc(-c2ccccc2)n1/N=C\c1ccc(-c2ccc(Cl)cc2)o1,GI50,NCI-H522,> 100 µM (inactive)
same,GI50,SF-268,> 100 µM (inactive)
same,GI50,TK-10,> 100 µM (inactive)
same,GI50,UO-31,> 100 µM (inactive)
same,GI50,HT-29,> 100 µM (inactive)
same,GI50,A549,> 100 µM (inactive)
same,GI50,M14,> 100 µM (inactive)
same,GI50,SK-MEL-28,> 100 µM (inactive)
same,GI50,K562,> 100 µM (inactive)
same,GI50,U-251,> 100 µM (inactive)
same,GI50,SNB-78,> 100 µM (inactive)
same,GI50,HCT-116,> 100 µM (inactive)
same,GI50,COLO 205,> 100 µM (inactive)
same,GI50,NCI-H460,> 100 µM (inactive)
same,GI50,IGROV-1,> 100 µM (inactive)
same,GI50,SF-295,> 100 µM (inactive)
same,GI50,DLD-1,> 100 µM (inactive)
same,GI50,LXFL 529,> 100 µM (inactive)
same,GI50,LOX IMVI,> 100 µM (inactive)
same,GI50,OVCAR-3,> 100 µM (inactive)
same,GI50,KM-20L2,> 100 µM (inactive)
same,GI50,SK-OV-3,> 100 µM (inactive)
same,GI50,OVCAR-4,> 100 µM (inactive)
same,GI50,HOP-62,> 100 µM (inactive)
same,GI50,HOP-92,> 100 µM (inactive)
same,GI50,SW-620,> 100 µM (inactive)
same,GI50,NCI-H23,> 100 µM (inactive)
same,GI50,NCI-H226,> 100 µM (inactive)
same,GI50,ACHN,> 100 µM (inactive)
same,GI50,UACC-257,> 100 µM (inactive)
same,GI50,HL-60,> 100 µM (inactive)
same,GI50,RPMI-8226,> 100 µM (inactive)
same,GI50,SR,> 100 µM (inactive)
same,GI50,SF-539,> 100 µM (inactive)
same,GI50,OVCAR-5,> 100 µM (inactive)
same,GI50,M19-MEL,> 100 µM (inactive)
same,GI50,SNB-75,> 100 µM (inactive)
same,GI50,OVCAR-8,> 100 µM (inactive)
same,GI50,SNB-19,> 100 µM (inactive)
same,GI50,UACC-62,> 100 µM (inactive)
same,GI50,MOLT-4,> 100 µM (inactive)
same,GI50,KM12,> 100 µM (inactive)
same,GI50,786-0,> 100 µM (inactive)
O=C1C=C[C@@]23C[C@@H](NC4=C2C2=NCCc5c[nH]c(c52)C4=O)SC3=C1 [1-DEBROMODISCORHABDIN B],GI50,NCI-H522,1.69 µM (inactive)
same,GI50,TK-10,14.6 µM (inactive)
same,GI50,UO-31,9.35 µM (inactive)
same,GI50,HT-29,2.22 µM (inactive)
same,GI50,MDA-N,1.73 µM (inactive)
same,GI50,CAKI-1,17.7 µM (inactive)
same,GI50,HCT-116,1.75 µM (inactive)
same,GI50,COLO 205,1.55 µM (inactive)
same,GI50,Malme-3M,1.25 µM (inactive)
same,GI50,KM-20L2,3.01 µM (inactive)
same,GI50,SK-OV-3,18.7 µM (inactive)
same,GI50,CCRF-CEM,2.86 µM (inactive)
same,GI50,NCI-H226,14.6 µM (inactive)
same,GI50,MDA-MB-435,1.63 µM (inactive)
same,GI50,HL-60,1.67 µM (inactive)
same,GI50,SNB-19,16.3 µM (inactive)
same,GI50,MOLT-4,1.99 µM (inactive)
same,GI50,KM12,6.43 µM (inactive)
CC1(C)CCC[C@@]2(C)C1CC[C@@]1(CO1)[C@@H]2/C=C\C(C=O)CC=O (stereo not given in full),GI50,NCI-H522,42.4 µM (inactive)
same,GI50,SF-268,> 100 µM (inactive)
same,GI50,TK-10,> 100 µM (inactive)
same,GI50,BT-549,> 100 µM (inactive)
same,GI50,UO-31,> 94.8 µM (inactive)
same,GI50,HT-29,> 56.6 µM (inactive)
same,GI50,MDA-N,> 87.9 µM (inactive)
same,GI50,A549,> 100 µM (inactive)
same,GI50,HCT-15,73.6 µM
same,GI50,M14,> 100 µM (inactive)
same,GI50,SK-MEL-28,> 100 µM (inactive)
same,GI50,K562,26.5 µM (inactive)
same,GI50,U-251,> 96.6 µM (inactive)
same,GI50,CAKI-1,> 100 µM (inactive)
same,GI50,HCT-116,62.2 µM (inactive)
same,GI50,COLO 205,> 91.8 µM (inactive)
same,GI50,PC-3,> 70.3 µM (inactive)
same,GI50,NCI-H460,> 100 µM (inactive)
same,GI50,IGROV-1,> 100 µM (inactive)
same,GI50,SF-295,> 100 µM (inactive)
same,GI50,LOX IMVI,> 67.1 µM (inactive)
same,GI50,SK-MEL-5,> 100 µM (inactive)
same,GI50,A498,> 100 µM (inactive)
same,GI50,RXF 393,99.8 µM (inactive)
same,GI50,SN12C,> 68.1 µM (inactive)
same,GI50,Malme-3M,> 100 µM (inactive)
same,GI50,OVCAR-3,> 100 µM (inactive)
same,GI50,SK-OV-3,> 100 µM (inactive)
same,GI50,CCRF-CEM,17.3 µM (inactive)
same,GI50,OVCAR-4,> 100 µM (inactive)
same,GI50,HOP-62,> 100 µM (inactive)
same,GI50,HOP-92,> 100 µM (inactive)
same,GI50,SW-620,67.1 µM (inactive)
same,GI50,NCI-H23,> 100 µM (inactive)
same,GI50,NCI-H226,> 100 µM (inactive)
same,GI50,T47D,99.3 µM (inactive)
same,GI50,Hs-578T,> 100 µM (inactive)
same,GI50,MDA-MB-435,> 100 µM (inactive)
same,GI50,ACHN,> 100 µM (inactive)
same,GI50,DU-145,> 100 µM (inactive)
same,GI50,UACC-257,> 100 µM (inactive)
same,GI50,SK-MEL-2,> 100 µM (inactive)
same,GI50,HL-60,21.6 µM (inactive)
same,GI50,RPMI-8226,10.9 µM (inactive)
same,GI50,MCF7,> 100 µM (inactive)
same,GI50,EKVX,> 100 µM (inactive)
same,GI50,SR,37.6 µM (inactive)
same,GI50,SF-539,> 87.3 µM (inactive)
same,GI50,OVCAR-5,> 100 µM (inactive)
same,GI50,HCC 2998,> 100 µM (inactive)
same,GI50,SNB-75,> 80.5 µM (inactive)
same,GI50,MDA-MB-231,> 100 µM (inactive)
same,GI50,OVCAR-8,> 100 µM (inactive)
same,GI50,SNB-19,> 100 µM (inactive)
same,GI50,NCI/ADR-RES,> 100 µM (inactive)
same,GI50,UACC-62,> 100 µM (inactive)
same,GI50,MOLT-4,21.5 µM (inactive)
same,GI50,KM12,> 67.9 µM (inactive)
same,GI50,786-0,> 75.3 µM (inactive)
